Laboratory results published in US9493426B2, “Quinazolinone derivatives useful as FGFR kinase modulators” (priority 2013, dated 2016).
Like-named read-outs stand apart in the source and are kept apart here.

Experiments:
[1] = target: T1, Ba/F3-FGFR1-transfected cells (Homo sapiens, UniProt P11362); assay: Ba/F3-FGFR1 (minus IL3 or plus IL3) cellular proliferation assay; type: cell-based; details: 24 hours, Alamar Blue
T1 construct: other: minus IL3; 24 hours, Alamar Blue
Description: Ba/F3-FGFR1 (Minus IL3 or Plus IL3) (Cellular Proliferation Assay)
(§1) In a 384 well plate, 100 nl of compound dilution in DMSO was sprayed before adding 50 μl cell culture medium (phenol red free RPMI-1640, 10% FBS, 2 mM L-Glutamine and 50 μg/ml Gentamycin) containing 20000 cells per well of Ba/F3-FGFR1-transfected cells. Cells were put in an incubator at 37° C. and 5% CO2. After 24 hours, 10 μl of Alamar Blue solution (0.5 mM K3Fe(CN)6, 0.5 mM K4Fe(CN)6, 0.15 mM Resazurin and 100 mM Phosphate Buffer) was added to the wells, incubated for 4 hours at 37° C. and 5% CO2 before RFU's (Relative Fluorescence Units) (ex. 540 nm., em. 590 nm.) were measured in a fluorescence plate reader.
(§2) In this assay, the inhibitory effect of different compound concentrations (range 10 μM to 0.1 nM) was determined and used to calculate an IC50 (M) and pIC50 (−log IC50) value. As a counterscreen the same experiment was performed in the presence of 10 ng/ml murine IL3.

[2] = target: FGFR2 (h) (Homo sapiens, UniProt P21802); assay: FGFR2 (enzymatic assay), TR-FRET; type: biochemical; details: 0.4 μM ATP; pIC50 = -log IC50 (M); read-out: FGFR 2 pIC50 (converted)
FGFR2 (h), sequence (P21802 22-821): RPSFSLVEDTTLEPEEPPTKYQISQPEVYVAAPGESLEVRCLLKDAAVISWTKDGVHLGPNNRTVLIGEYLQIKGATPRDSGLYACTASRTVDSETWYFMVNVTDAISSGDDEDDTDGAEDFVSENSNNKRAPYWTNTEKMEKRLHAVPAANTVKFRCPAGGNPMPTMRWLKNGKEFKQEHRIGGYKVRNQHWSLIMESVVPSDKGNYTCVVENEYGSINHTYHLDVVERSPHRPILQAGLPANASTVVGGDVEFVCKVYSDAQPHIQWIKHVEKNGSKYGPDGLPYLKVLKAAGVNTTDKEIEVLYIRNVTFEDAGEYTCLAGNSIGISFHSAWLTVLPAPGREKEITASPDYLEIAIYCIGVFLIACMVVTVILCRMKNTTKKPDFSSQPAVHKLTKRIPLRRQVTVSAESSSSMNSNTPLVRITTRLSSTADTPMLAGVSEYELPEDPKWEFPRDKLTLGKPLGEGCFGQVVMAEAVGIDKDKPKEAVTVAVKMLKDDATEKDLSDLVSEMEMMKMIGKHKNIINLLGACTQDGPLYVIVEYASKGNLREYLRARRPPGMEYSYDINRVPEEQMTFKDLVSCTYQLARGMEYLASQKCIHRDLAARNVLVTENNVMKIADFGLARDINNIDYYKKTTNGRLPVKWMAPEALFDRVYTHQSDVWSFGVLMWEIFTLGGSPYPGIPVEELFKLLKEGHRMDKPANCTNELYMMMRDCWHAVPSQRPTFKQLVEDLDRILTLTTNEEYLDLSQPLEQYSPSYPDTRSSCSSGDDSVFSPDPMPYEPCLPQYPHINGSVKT

[3] = target: T2, Ba/F3-FGFR3-transfected cells (Homo sapiens, UniProt P22607, cells depend on it, form not given); assay: Ba/F3-FGFR3 (minus IL3 or plus IL3) cellular proliferation assay; type: cell-based; details: 24 hours, Alamar Blue
T2 construct: BAF3-FGFR3 (MIN IL3 pIC50); other: minus IL3; 24 hours, Alamar Blue
Description: Ba/F3-FGFR3 (Minus IL3 or Plus IL3) (Cellular Proliferation Assay)
as §1, with “Ba/F3-FGFR3-transfected” for “Ba/F3-FGFR1-transfected”
as §2

[4] = target: T3, Ba/F3-KDR-transfected cells (Homo sapiens, UniProt P35968, cells depend on it, form not given); assay: Ba/F3-KDR (minus IL3 or plus IL3) cellular proliferation assay; type: cell-based; details: 24 hours, Alamar Blue
T3 construct: BAF3-KDR (MIN IL3 pIC50); other: minus IL3; 24 hours, Alamar Blue
Description: Ba/F3-KDR (Minus IL3 or Plus IL3) (Cellular Proliferation Assay)
as §1, with “Ba/F3-KDR-transfected” for “Ba/F3-FGFR1-transfected”
as §2

[5] = target: KDR (h) (Homo sapiens, UniProt P35968); assay: KDR (VEGFR2) (enzymatic assay), TR-FRET; type: biochemical; details: 3 μM ATP; pIC50 = -log IC50 (M); read-out: VEGFR KDR pIC50 (converted)
Description: KDR (VEGFR2) (Enzymatic Assay)
In a final reaction volume of 30 μL, KDR (h) (150 ng/ml) was incubated with 50 mM HEPES pH 7.5, 6 mM MnCl2, 1 mM DTT, 0.1 mM Na3VO4, 0.01% Triton-X-100, 500 nM Btn-Flt3 and 3 μM ATP in the presence of compound (1% DMSO final). After incubation for 120 minutes at room temperature the reaction was stopped with 2.27 nM EU-anti P-Tyr, 7 mM EDTA, 31.25 nM SA-XL-665 and 0.02% BSA which was present for 60 minutes at room temperature. Time-Resolved Fluorescence Resonance Energy Transfer (TR-FRET) signal (ex340 nm. Em 620 nm, em 655 nm) was measured afterwards and results are expressed in RFU (Relative Fluorescence Units). In this assay, the inhibitory effect of different compound concentrations (range 10 μM to 0.1 nM) was determined and used to calculate an IC50 (M) and pIC50 (−log IC50) value.

[6] = target: FGFR4 (h) (Homo sapiens, UniProt P22455); assay: FGFR4 (enzymatic assay), TR-FRET; type: biochemical; details: 5 μM ATP; pIC50 = -log IC50 (M); read-out: FGFR 4 pIC50 (converted)
FGFR4 (h), sequence (P22455 22-802): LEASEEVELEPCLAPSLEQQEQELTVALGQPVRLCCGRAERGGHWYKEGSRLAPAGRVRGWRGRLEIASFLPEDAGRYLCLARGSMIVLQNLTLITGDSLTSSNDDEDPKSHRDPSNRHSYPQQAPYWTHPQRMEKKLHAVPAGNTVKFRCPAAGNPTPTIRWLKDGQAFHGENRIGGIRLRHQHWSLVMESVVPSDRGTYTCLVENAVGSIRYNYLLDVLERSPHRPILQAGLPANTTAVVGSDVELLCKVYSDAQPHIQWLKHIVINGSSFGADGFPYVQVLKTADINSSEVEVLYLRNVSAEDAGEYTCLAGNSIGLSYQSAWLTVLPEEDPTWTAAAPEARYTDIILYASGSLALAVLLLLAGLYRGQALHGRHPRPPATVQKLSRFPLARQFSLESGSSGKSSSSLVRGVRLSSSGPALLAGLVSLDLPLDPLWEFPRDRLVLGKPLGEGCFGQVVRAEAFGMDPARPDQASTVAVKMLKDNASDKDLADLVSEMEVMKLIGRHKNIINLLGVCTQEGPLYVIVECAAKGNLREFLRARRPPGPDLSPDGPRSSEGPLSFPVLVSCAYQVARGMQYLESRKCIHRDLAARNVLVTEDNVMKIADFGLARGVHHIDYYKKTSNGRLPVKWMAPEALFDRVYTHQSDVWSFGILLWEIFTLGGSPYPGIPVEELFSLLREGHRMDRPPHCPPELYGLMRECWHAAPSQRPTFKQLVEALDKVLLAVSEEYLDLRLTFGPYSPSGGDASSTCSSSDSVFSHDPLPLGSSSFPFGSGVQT

[7] = target: FGFR1 (h) (Homo sapiens, UniProt P11362); assay: FGFR1 (enzymatic assay), TR-FRET; type: biochemical
FGFR1 (h), sequence (P11362 22-822): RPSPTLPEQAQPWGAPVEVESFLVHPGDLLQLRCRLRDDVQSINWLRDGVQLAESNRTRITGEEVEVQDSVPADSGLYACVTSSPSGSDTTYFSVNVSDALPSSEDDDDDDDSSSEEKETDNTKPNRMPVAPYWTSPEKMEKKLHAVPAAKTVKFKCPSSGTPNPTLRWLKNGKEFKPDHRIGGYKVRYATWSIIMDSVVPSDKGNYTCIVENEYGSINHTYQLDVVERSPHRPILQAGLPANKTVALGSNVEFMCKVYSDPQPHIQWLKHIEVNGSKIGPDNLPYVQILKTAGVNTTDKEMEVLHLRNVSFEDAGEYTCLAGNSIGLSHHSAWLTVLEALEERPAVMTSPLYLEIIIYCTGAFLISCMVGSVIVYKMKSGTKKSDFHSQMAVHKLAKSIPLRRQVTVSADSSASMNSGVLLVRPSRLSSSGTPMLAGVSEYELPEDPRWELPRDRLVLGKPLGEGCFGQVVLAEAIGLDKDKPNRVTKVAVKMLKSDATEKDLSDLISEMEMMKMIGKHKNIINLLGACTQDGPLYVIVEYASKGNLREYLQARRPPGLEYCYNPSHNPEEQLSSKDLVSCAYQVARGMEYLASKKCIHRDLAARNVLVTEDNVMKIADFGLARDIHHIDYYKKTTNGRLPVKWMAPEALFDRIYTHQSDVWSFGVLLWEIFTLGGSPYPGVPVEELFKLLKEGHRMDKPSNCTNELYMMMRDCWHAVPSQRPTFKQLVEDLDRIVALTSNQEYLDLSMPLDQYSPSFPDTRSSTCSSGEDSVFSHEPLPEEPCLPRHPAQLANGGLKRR

[8] = target: Ba/F3-FGFR4-transfected cells (Homo sapiens, UniProt P22455, cells depend on it, form not given); assay: Ba/F3-FGFR4 cellular proliferation assay; type: cell-based; details: 24 hours, Alamar Blue
Ba/F3-FGFR4-transfected cells, sequence (P22455 whole entry, looked up, change not shown): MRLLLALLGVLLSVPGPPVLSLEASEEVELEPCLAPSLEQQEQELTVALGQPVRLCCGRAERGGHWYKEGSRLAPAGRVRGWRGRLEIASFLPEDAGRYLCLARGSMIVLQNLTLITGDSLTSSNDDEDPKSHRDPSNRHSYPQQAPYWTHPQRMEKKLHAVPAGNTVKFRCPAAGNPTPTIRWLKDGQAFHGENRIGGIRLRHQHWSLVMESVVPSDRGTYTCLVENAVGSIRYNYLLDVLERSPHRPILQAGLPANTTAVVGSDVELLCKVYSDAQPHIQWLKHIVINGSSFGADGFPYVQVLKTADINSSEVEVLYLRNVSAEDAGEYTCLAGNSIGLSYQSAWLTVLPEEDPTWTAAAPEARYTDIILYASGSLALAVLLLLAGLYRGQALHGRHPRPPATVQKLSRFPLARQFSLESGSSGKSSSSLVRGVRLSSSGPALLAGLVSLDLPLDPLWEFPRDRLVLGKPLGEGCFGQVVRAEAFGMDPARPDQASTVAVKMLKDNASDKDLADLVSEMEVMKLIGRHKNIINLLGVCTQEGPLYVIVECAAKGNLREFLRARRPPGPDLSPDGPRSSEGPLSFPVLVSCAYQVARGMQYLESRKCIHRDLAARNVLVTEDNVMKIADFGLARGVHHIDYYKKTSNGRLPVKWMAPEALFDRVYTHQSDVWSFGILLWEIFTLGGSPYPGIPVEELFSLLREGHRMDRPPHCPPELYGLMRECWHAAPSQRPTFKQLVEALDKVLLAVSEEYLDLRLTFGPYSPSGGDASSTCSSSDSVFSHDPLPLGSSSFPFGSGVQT
Description: Ba/F3-FGFR4 (Cellular Proliferation Assay)
as §1, with “Ba/F3-FGFR4-transfected” for “Ba/F3-FGFR1-transfected”
In this assay, the inhibitory effect of different compound concentrations (range 10 μM to 0.1 nM) was determined and used to calculate an IC50 (M) and pIC50 (−log IC50) value.

[9] = target: FGFR3 (h) (Homo sapiens, UniProt P22607); assay: FGFR3 (enzymatic assay), TR-FRET; type: biochemical
FGFR3 (h), sequence (P22607 23-806): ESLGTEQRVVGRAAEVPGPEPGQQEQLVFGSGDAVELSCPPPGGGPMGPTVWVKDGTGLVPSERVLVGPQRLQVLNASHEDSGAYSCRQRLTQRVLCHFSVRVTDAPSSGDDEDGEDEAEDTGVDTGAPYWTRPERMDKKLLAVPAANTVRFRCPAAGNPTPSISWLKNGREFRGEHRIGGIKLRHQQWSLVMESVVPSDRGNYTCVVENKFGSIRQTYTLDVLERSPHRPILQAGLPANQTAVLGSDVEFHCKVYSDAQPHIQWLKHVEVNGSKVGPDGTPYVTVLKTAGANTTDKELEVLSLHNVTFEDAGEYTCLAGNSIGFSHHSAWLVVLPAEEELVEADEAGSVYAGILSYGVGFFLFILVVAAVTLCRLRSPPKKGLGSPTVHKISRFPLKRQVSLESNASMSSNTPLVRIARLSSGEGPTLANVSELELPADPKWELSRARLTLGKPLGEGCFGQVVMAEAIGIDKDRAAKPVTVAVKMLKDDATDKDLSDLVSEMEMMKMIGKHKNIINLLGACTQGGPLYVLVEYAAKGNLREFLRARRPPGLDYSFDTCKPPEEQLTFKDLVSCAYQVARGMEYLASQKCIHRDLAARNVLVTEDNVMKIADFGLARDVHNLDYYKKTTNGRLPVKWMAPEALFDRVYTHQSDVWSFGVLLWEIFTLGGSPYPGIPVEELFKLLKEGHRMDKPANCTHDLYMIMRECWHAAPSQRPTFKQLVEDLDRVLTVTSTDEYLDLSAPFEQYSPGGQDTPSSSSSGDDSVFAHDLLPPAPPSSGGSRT

[10] = 25 μM ATP, pIC50 = -log IC50 (M), read-out: FGFR3 pIC50 (converted)

T1 sequence (P11362 whole entry, change not shown): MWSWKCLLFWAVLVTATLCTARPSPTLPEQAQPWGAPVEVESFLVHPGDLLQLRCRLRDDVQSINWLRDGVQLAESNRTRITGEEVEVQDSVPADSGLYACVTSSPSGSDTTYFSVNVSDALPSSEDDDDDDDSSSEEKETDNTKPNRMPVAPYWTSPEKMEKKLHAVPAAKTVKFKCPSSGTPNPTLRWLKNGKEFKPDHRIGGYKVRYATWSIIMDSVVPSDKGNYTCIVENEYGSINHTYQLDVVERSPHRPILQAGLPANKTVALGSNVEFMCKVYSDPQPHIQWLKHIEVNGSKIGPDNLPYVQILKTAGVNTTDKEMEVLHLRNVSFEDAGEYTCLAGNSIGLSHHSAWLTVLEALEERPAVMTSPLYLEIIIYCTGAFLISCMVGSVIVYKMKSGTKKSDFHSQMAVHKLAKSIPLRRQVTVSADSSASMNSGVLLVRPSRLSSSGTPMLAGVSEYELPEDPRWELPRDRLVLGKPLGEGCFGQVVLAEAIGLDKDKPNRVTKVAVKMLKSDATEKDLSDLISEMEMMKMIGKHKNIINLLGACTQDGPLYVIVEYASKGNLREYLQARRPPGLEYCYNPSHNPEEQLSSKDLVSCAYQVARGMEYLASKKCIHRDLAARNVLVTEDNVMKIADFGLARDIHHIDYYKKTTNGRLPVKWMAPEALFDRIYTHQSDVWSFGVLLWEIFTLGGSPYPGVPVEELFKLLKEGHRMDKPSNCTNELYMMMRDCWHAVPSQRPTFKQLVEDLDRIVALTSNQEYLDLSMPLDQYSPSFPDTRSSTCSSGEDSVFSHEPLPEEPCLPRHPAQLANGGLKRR

| Compound | BAF3-FGFR1 (MIN IL3 pIC50) [1] | IC50 [2] [M] | BAF3-FGFR3 (MIN IL3 pIC50) [3] | BAF3-KDR (MIN IL3 pIC50) [4] | IC50 [5] [M] | IC50 [6] [M] | IC50 [7] [nM] | BAF3-FGFR4 (pIC50) [8] | melting point [°C] | IC50 [9, 10] [M] | IC50 [9] [M] |
| --- | --- | --- | --- | --- | --- | --- | --- | --- | --- | --- | --- |
| COc1cc(OC)c(F)c(N(CCO)c2ccc3ncn(-c4ccccc4)c(=O)c3c2)c1F [Compound 1] | 6.0 | 6.31e-09 | 6.4 | ~5 | 2.51e-07 | 3.98e-08 | 10 | 5.6 | 169 | 6.31e-09 |  |
| COc1cc(OC)c(F)c(N(CCNC(C)C)c2ccc3ncn(-c4ccccc4)c(=O)c3c2)c1F [Compound 2] | 7.7 | 2.51e-08 | 7.6 | 5.7 | 2.51e-07 | 3.98e-08 | 6.31 | 6.3 | 124 | 2.51e-08 |  |
| COc1cc(OC)c(F)c(N(Cc2ncc[nH]2)c2ccc3ncn(-c4ccccc4)c(=O)c3c2)c1F [Compound 4] | 6.1 | 1.26e-08 | 6.2 | <5 | > 1e-06 | 2.51e-08 | 15.8 | 5.4 |  | 7.94e-09 |  |
| COc1cc(OC)c(Cl)c(N(CCO)c2ccc3ncn(-c4ccccc4)c(=O)c3c2)c1Cl [Compound 5] | 5.5 | 3.98e-08 | 5.3 | <5 | ~1e-06 | 5.01e-07 | 63.1 | <5 | 251 | 2.51e-08 |  |
| COc1cc(OC)c(F)c(N(CCO)c2ccc3ncn(-c4ccccc4)c(=O)c3c2)c1 [Compound 6] | 5.5 | 5.01e-08 | 5.5 | <5 | > 1e-06 | 3.16e-07 | 79.4 | 5.0 | 183 |  | 3.98e-08 |
| COc1cc(OC)cc(N(CCO)c2ccc3ncn(-c4cnn(C)c4)c(=O)c3c2)c1 [Compound 8] | 5.4 | 2.51e-08 | 5.6 | <5 | 7.94e-07 | 1.58e-07 | 50.1 | 5.2 | 185 | 2e-08 |  |
